Values quoted from earlier work as cited in patent US4835149A, “Solubilization of salts of pyridine-2-thiol-1-oxide” (BASF Corporation, priority 1986, dated 1989).

What was measured:
[1] = not given; remark: listed apart in the source

[O-][n+]1ccccc1[S-].[O-][n+]1ccccc1[S-].[Zn+2] [zinc salt]
solubility in benzene (benzene): 3-5 p.p.m. | solubility in chloroform (chloroform): 3400 p.p.m. | solubility in dimethyl formamide (dimethyl formamide): 8100 p.p.m. | solubility in dimethyl sulfoxide (dimethyl sulfoxide): 5.13% | solubility in ethanol (ethanol): 310 p.p.m. | solubility in petroleum oils, and most common organic solvents (petroleum oils, and most common organic solvents, in words): substantially insoluble | solubility in water (water): 10-20 p.p.m. | solubility of the zinc salt in a composition according to U.S. Pat. No. 3,636,213 ([1]; composition having a pH of about 8): at least 200 parts per million | solubility in water at pH 8 ([1]; pH of 8): 35 to 50 parts per million | solubility in water at pH 7 ([1]; water, pH 7): 10 to 20 parts per million
